Assay results from patent US7285557B2, “Pyrimidinones as melanin concentrating hormone receptor 1” (SmithKline Beecham P.L.C., priority 2001, dated 2007).

Target: T1, human melanin-concentrating hormone one receptor (Homo sapiens, UniProt Q99705)
T1 construct: expressed in transfected cells; host or cells: CHO (CHO-K1) cells stably expressing an elkgal4-luc+ reporter gene
Assay: Functional antagonist assay of MCHR1 (elkgal4-luc+ luciferase reporter gene in CHO cells, inhibition of MCH EC80 response)
Type: cell-based
Conditions: MCH1R-elkgal4-luc+ CHO cells, luciferase readout, read-out: MCHR1 pIC50 (converted)
Description: Chinese hamster ovary (CHO-K1) cells were obtained from the American Type Culture Collection (Rockville, Md.).
CHO cells, stably expressing an elkgal4-luc^+ reporter gene (host) were transfected by electroporation with the human melanin-concentrating hormone one receptor. A stable clone was selected using G418 for functional antagonist assays. MCH1R-elkgal4-luc^+ CHO cells were propagated in complete medium (DMEM/F12, 5% FBS, 2 mM I-glutamine) in T225 flasks. Forty-eight hours prior to assay, cells were harvested with 2 mL of 0.05% trypsin, washed with complete medium and plated at a concentration of 10,000 cells/well in complete medium in black 96-well plates. Eighteen hours prior to the assay, the medium was removed from the cells by aspiration and replaced with 90 μl/well of serum-free DMEM/F12. […] Plates were sealed and subjected to dark adaptation at room temperature for 10 minutes before luciferase activity was quantitated on a TopCount™ microplate scintillation counter (Packard) using 3 seconds/well count time. The ability of the antagonist to inhibit the MCH EC80 response was quantified by non-linear regression analysis using a curve-fitting program based in Microsoft ExCel. Specificity of the MCHR1 response was determined using the same protocol by measuring the ability of said antagonists to inhibit an EC80 thrombin response (endogenous) in the host cells.

T1 sequence (Q99705 whole entry, the tested form may be a part): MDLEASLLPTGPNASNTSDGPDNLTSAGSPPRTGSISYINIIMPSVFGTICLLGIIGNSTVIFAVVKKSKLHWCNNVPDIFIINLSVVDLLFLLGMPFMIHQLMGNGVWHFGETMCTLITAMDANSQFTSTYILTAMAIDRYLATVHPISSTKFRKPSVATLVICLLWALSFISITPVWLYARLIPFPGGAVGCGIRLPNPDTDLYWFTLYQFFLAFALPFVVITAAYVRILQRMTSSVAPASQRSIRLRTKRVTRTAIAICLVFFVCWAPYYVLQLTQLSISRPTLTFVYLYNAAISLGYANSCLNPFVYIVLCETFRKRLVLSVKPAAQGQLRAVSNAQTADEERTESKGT

Structure (SMILES) | IC50 [nM]
COc1cc(-n2cnc3cc(-c4ccc(C(F)(F)F)cc4)ccc3c2=O)ccc1OCCN1CCCC1 [Example J1, 3-{3-methoxy-4-[2-(1-pyrrolidinyl)ethoxy]phenyl}-7-[4-(trifluoromethyl)phenyl]-4(3H)-quinazolinone] | 63.1
COc1cc(-n2cnc3cc(-c4ccccc4)ccc3c2=O)ccc1OCCN1CCCCC1 [Example H1, 3-{3-methoxy-4-[2-(1-piperidinyl)ethoxy]phenyl}-7-phenyl-4(3H)-quinazolinone] | 79.4
